Experimental findings from US7105553B2, “Thiazolyl amide derivatives” (Bayer Aktiengesellschaft, priority 1999, dated 2006) are described below.

One series relates to HSV-1 F. The series can be described thus: anti-HSV screening test (cytopathogenic effect, fluorescein diacetate read-out), HSV-1 F on Vero cells. In kind it is cell-based. To be noted: read-out: IC50 HSV-1 F/Vero. The procedure: (§1) HSV (HSV-1 Walki, HSV-1F or HSV-2G) was cultivated on Vero cells (ATCC CCL-81) under the following conditions: The cells were grown in M199 medium (5% foetal calf serum, 2 mM glutamine, 100 IU/ml penicillin, 100 μg/ml streptomycin) in cell culture bottles at 37° C. and 5% CO2. The cells were splitted twice per week, in each case 1:4. For the infection, the medium was removed, the cells were washed with Hank's solution, detached using 0.05% trypsin, 0.02% EDTA (Seromed L2143) and incubated at a density of 4×10^5 cells per ml under the abovementioned conditions for 24 hours. The medium was then removed and the virus solution was added at an m.o.i of <0.05 in a volume of 2 ml per 175 cm^2 of surface. The medium was incubated under the conditions mentioned for one hour and then made up to a volume of 50 ml per 175 cm^2 bottle. […] The virus was released by freezing (−80° C.) and thawing (37° C.) the cultures twice. Cell debris was removed by centrifugation (300 g, 10 min, 4° C.) and the supernatant was frozen down in aliquots at −80° C.
(§2) The anti-HSV action was determined in a screening test system in 96-well microtitre plates using various cell lines of neuronal, lymphoid and epithelial origin, such as, for example, Vero (kidney cell line of the green monkey), MEF (murine embryonal fibroblasts), HELF (humane embryonal fibroblasts), NT2 (humane neuronal cell line) or Jurkat (humane lymphoid T-cell line).
(§3) The substances (50 mM), dissolved in DMSO (dimethyl sulphoxide), are examined on microtitre plates (for example 96-well MTP) in final concentrations of 250-0.5 μM (micromolar) in two replications (4 substances/plate). In the case of potent substances, the dilutions are continued for several plates up to 0.5 pM (picomolar). Also examined are toxic and cytostatic effects of the substances. After an appropriate dilution of the substances (1:2) on the microtitre plate in medium, a suspension of cells (1×10^4 cells per well) such as, for example, of Vero cells in M199 (medium 199) with 5% foetal calf serum, 2 mM glutamine and optionally 100 IU/ml penicillin and 100 μg/ml streptomycin or of MEF cells in EMEM (Eagle's Minimum Essential Medium) with 10% foetal calf serum, 2 mM glutamine and optionally 100 IU/ml penicillin and 100 μg/ml streptomycin, or of HELF cells in EMEM with 10% foetal calf serum, 2 mM glutamine and optionally 100 IU/ml penicillin and 100 μg/ml streptomycin, or of NT2- and Jurkat cells in DMEM ([…] glucose plus pyridoxin) with 10% foetal calf serum, 2 mM glutamine, 1 mM sodium pyruvate, non-essential amino acids and optionally 100 IU/ml penicillin and 100 μg/ml streptomycin is added to each well and the cells in the relevant wells are infected with an appropriate amount of virus (HSV-1 F or HSV-2 G having an m.o.i (multiplicity of infection) of 0.0025 for HELF, Vero and MEF cells and an m.o.i of 0.1 for NT2 and Jurkat cells). The plates are then incubated at 37° C. in a CO2 incubator (5% CO2) for several days. […] The plates are initially evaluated visually using a microscope and then analysed using a fluorescent dye. To this end, the cell supernatant of all wells of the MTP is aspirated and the wells are filled with 200 μl of PBS wash solution. The PBS is then aspirated and all the wells are filled with 200 μl of fluorescent dye solution (fluorescein diacetate, 10 μg/ml in PBS). After an incubation time of 30-90 min, the test plates are read in a fluorescence detector at an excitation wavelength of 485 nm and an emission wavelength of 538 nm.

For another series, the system named is HSV-2 G. Put plainly: anti-HSV screening test (cytopathogenic effect, fluorescein diacetate read-out), HSV-2 G on Vero cells. The following applies: read-out: IC50 HSV-2 G/Vero. In kind it is cell-based. The method, then: as §1, §2, §3
(Damage to the host cells serves as the signal in cytopathic effect assays.)

The next series relates to HSV-2. Put plainly: in-vivo action: survival of intranasally HSV-infected mice. The following applies: Human alphaherpesvirus 2; HSV-2, intranasal infection 5×10^4 Pfu, treatment 3 times per day for 5 days from 6 hours after infection; read-out: ED50 (50% of the animals survive at this dose). Details: species or system mice (BALB/cABom). The procedure: 6 week-old female mice, BALB/cABom strain were obtained from a commercial breeder (Bomholtgard Breeding and Research Centre Ltd.).
The animals were anaesthetized with diethyl ether (Merck) in a sealed glass vessel. 50 μl of a dilution of the virus stock (infection dose 5×10^4 Pfu) were introduced into the nose of the anaesthetized animals using an Eppendorf pipette. In 90-100% of the animals, this infection dose causes death by a generalized infection with prominent respiratory and central-nervous symptoms on average after 5 to 8 days.
6 hours after the infection, the animals were treated with doses of 0.1-100 mg/kg of body mass, 3 times per day, at 7 a.m., 2 p.m. and 7 p.m., for a period of 5 days. The substances were pre-dissolved in DMSO and resuspended in tylose/PBS (Hoechst) (final concentration 1.5% DMSO, 0.5% tylose in PBS).
After the last administration, the animals were monitored further and the time of death was determined.

The mark [1] stands for this setting: Human alphaherpesvirus 1, Vero cells infected with HSV-1 F, m.o.i. 0.0025, half-maximal fluorescence intensity vs non-infected cell control.
Setting [2] is: Human alphaherpesvirus 2, Vero cells infected with HSV-2 G, m.o.i. 0.0025, half-maximal fluorescence intensity vs non-infected cell control.

Where two headings read alike, the source gives them in different places. Where only a bound is given, the exact number is not on record here.

What is called melting point is the temperature of the solid-liquid transition. Turning to `CNS(=O)(=O)c1sc(N(C)C(=O)Cc2ccc(-c3cc(F)ccc3C)cc2)nc1C` [Example 8], the melting point stood at 186 °C. Moreover, the IC50 in the series on HSV-1 F (setting [1]) came to 100 nM. The IC50 with HSV-2 G (setting [2]) amounted to 100 nM.
In the case of `CCOc1ccc(CC(=O)N(C)c2nc(C)c(S(=O)(=O)N(C)C)s2)cc1` [Example 14], the melting point stood at 154 °C. Further, in the series with HSV-1 F (setting [1]), the IC50 amounted to 100 nM. Also, in the series on HSV-2 G (setting [2]), the IC50 is 750 nM.
With `CNS(=O)(=O)c1sc(N(CCN2CCCC2=O)C(=O)Cc2ccc(-c3ccccc3)cc2)nc1C` [Example 23], the melting point was found to be 156 °C. In the series with HSV-1 F (setting [1]), the IC50 came to 30 nM. For the same compound, the IC50 in the series on HSV-2 G (setting [2]) worked out at 100 nM.
Take `Cc1nc(N(C)C(=O)Cc2ccc(-c3ccccn3)cc2)sc1S(N)(=O)=O` [Example 38, N-[5-(Aminosulphonyl)-4-methyl-1,3-thiazol-2-yl]-N-methyl-2-[4-(2-pyridinyl)phenyl]acetamide]: the IC50 was 50 nM with HSV-1 F (setting [1]) and 16 nM in the series on HSV-2 G (setting [2]).
By ED50 is commonly meant the midpoint of the dose-response relation. `Cc1nc(N(C)C(=O)Cc2ccc(-c3ccccc3F)cc2)sc1S(N)(=O)=O` [Example 57, N-[5-(Aminosulphonyl)-4-methyl-1,3-thiazol-2-yl]-2-(2′-fluoro[1,1′-biphenyl]-4-yl)-N-methylacetamide]: the IC50 is less than 10 nM in the series on HSV-1 F (Human alphaherpesvirus 1, Vero) and less than 10 nM with HSV-2 G (Human alphaherpesvirus 2, Vero). The 50% effective dose (ED50) in the series on HSV-2 is approximately 0.7 mg/kg.
As for `Cc1nc(N(C)C(=O)Cc2ccc(-c3cc(F)ccc3F)cc2)sc1S(N)(=O)=O` [Example 87, N-[5-(aminosulphonyl)-4-methyl-1,3-thiazol-2-yl]-2-(2′,5′-difluoro-1,1′-biphenyl-4-yl)-N-methylacetamide], the IC50 in the series with HSV-1 F (setting [1]) and in the series on HSV-2 G (setting [2]) was less than 10 nM each time.
For `Cc1nc(N(C)C(=O)Cc2ccc(-n3cccn3)cc2)sc1S(N)(=O)=O` [Example 126, N-[5-(Aminosulphonyl)-4-methyl-1,3-thiazol-2-yl]-N-methyl-2-[4-(1H-pyrazol-1-yl)phenyl]acetamide], the results for the IC50 in the series on HSV-1 F (setting [1]) and in the series on HSV-2 G (setting [2]) were 10 nM and 100 nM, respectively.
